Measured values taken from article PMC7170311 (Journal of Enzyme Inhibition and Medicinal Chemistry, 2020).

Target: T1, Gal4-DBD-RXRα-LBD (Homo sapiens, UniProt P19793)
T1 sequence (P19793 227-458 limits assumed): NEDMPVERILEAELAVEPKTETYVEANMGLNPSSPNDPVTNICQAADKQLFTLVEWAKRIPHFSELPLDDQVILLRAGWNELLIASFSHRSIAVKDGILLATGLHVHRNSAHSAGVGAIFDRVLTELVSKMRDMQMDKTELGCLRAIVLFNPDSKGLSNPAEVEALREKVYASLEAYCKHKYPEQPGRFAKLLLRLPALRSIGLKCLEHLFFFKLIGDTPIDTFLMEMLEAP
Assay: cell-based
Conditions: HEK-293T, read-out: inhibition of 9-cis-RA-induced RXRα transactivation

Q: `Cc1ccc(NC(=O)NNC(=O)c2ccc(Nc3nccc(-c4cccnc4)n3)cc2)cc1` [Compound 6k, 2-(4-((4-(pyridin-3-yl)pyrimidin-2-yl)amino)benzoyl)-N-(p-tolyl)hydrazine-1-carboxamide] was tested. Which inhibition at 1 µM did it give?
A: > 50%
